Results as given in patent US7273880B2, “Selective NPY (Y5) antagonists” (H. Lunbeck A/S, priority 1999, dated 2007).
Structures can show the parent of a compound that is named as a salt.

Columns and labels:
[1] = molecular target: T1, human Y5 receptor (hNPY-5) (Homo sapiens, UniProt Q15761); assay: Radioligand binding to membranes, cloned human Y5 receptor; details: cloned human NPY Y5 receptor, radioligand competition binding; Tables 1-3; read-out: Ki, nM hNPY-5
T1 construct: expressed in transfected cells; host or cells: mouse fibroblast LM(tk-) cells, e.g. L-hY5-7 (ATCC CRL-11995)
T1 sequence (Q15761 1-445): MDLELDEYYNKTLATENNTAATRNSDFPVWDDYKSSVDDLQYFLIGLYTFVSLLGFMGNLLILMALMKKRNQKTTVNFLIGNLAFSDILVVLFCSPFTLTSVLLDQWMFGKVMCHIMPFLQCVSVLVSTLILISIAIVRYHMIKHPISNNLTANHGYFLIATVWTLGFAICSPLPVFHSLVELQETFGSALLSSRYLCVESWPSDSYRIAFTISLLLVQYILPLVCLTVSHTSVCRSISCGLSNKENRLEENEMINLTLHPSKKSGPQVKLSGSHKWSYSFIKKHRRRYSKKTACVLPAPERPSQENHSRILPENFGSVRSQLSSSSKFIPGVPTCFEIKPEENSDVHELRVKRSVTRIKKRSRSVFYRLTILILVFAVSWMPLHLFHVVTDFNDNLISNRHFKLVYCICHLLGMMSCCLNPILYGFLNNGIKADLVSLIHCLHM
Experimental: Binding of the compounds of the present invention to human Y1, Y2, Y4, and Y5 receptors was evaluated using stably transfected 293 or LM(tk-) cells as described above. Stably transfected cell lines which may be used for binding assays include, for example, for the human Y1 receptor, 293-hY1-5 (deposited Jun. 4, 1996, under ATCC Accession No. CRL-12121), for the human Y2 receptor, 293-hY2-10 (deposited Jan. 27, 1994, under ATCC Accession No. CRL-11537), for the human Y4 receptor, L-hY4-3 (deposited Jan. 11, 1995, under ATCC Accession No. CRL-11779), and for human Y5 receptor, L-hY5-7 (deposited Nov. 15, 1995, under ATCC Accession No. CRL-11995). These cell lines were deposited with the American Type Culture Collection (ATCC), 10801 University Blvd., Manassas, Va. 20110-2209, U.S.A. under the provisions of the Budapest Treaty for the International Recognition of the Deposit of Microorganisms for the Purposes of Patent Procedure.
Membranes were harvested from COS-7 cells 48 hours after transient transfection. Adherent cells were washed twice in ice-cold phosphate buffered saline (138 mM NaCl, 8.1 mM Na2HPO4, 2.5 mM KCl, 1.2 mM KH2PO4, 0.9 mM CaCl2, 0.5 mM MgCl2, pH 7.4) and lysed by sonication in ice-cold sonication buffer (20 mM Tris-HCl, 5 mM EDTA, pH 7.7). Large particles and debris were cleared by low speed centrifugation (200×g, 5 min, 4° C.). Membranes were collected from the supernatant fraction by centrifugation (32,000×g, 18 min, 4° C.), washed with ice-cold hypotonic buffer, and collected again by centrifugation (32,000×g, 18 min, 4° C.). The final membrane pellet was resuspended by sonication into a small volume of ice-cold binding buffer (˜1 ml for every 5 plates: 10 mM NaCl, 20 mM HEPES, 0.22 mM KH2PO4, 1.26 mM CaCl2, 0.81 mM MgSO4, pH 7.4). Protein concentration was measured by the Bradford method (Bradford, 1976) using Bio-Rad Reagent, with bovine serum albumin as a standard. Membranes were held on ice for up to one hour and used fresh, or flash-frozen and stored in liquid nitrogen.
Membranes were prepared similarly from 293, LM(tk-), and NIH-3T3 cells. To prepare membranes from baculovirus infected cells, 2×10^7 Sf21 cells were grown in 150 mm tissue culture dishes and infected with a high-titer stock of hY5BB3. Cells were incubated for 2-4 days at 27° C., no CO2 before harvesting and membrane preparation as described above.
Membrane suspensions were diluted in binding buffer supplemented with 0.1% bovine serum albumin to yield an optimal membrane protein concentration so that ^125I-PYY (or alternative radioligand such as ^125I-NPY, ^125I-PYY3-36, or ^125I-[Leu^31Pro^34]PYY) bound by membranes in the assay was less than 10% of ^125I-PYY (or alternative radioligand) delivered to the sample (100,000 dpm/sample=0.08 nM for competition binding assays). ^125I-PYY (or alternative radioligand) and peptide competitors were also diluted to desired concentrations in supplemented binding buffer. Individual samples were then prepared in 96-well polypropylene microtiter plates by mixing 125I-PYY (25 μL) (or alternative radioligand), competing peptides or supplemented binding buffer (25 μL), and finally, membrane suspensions (200 μL). Samples were incubated in a 30° C. water bath with constant shaking for 120 min. Incubations were terminated by filtration over Whatman GF/C filters (pre-coated with 1% polyethyleneimine and air-dried before use), followed by washing with 5 mL of ice-cold binding buffer. Filter-trapped membranes were impregnated with MeltiLex solid scintillant (Wallac, Turku, Finland) and counted for ^125I in a Wallac Beta-Plate Reader. Alternatively, incubations were carried out in GF/C filter plates (pre-coated with 1% polyethyleneimine and air-dried before use), followed by vacuum filtration and three washes of 300 μL of ice-cold binding buffer. 50 μL of UltimaGold (Packard) scintillant were added and counted for ^125I in a Wallac MicroBeta Trilux. […]

| melting point [°C] | Ki [1] [nM] | SMILES |
| --- | --- | --- |
| 55 to 57 |  | O=S(=O)(NCCCCCNc1nc2c(s1)CCCc1ccc(F)cc1-2)c1ccccc1F (as salt: HCl) [Example 3, 1-Aza-9-fluoro-2-(5-(2-fluorophenyl)sulfonylamino)-pentylamino-4,5-dihydro-3-thia-benzo[e]azulene] |
|  | 4.1 | O=S(=O)(NC[C@H]1CC[C@H](Nc2nc3c(s2)CCCc2ccc(F)cc2-3)CC1)N1CCOCC1 [Example 76, trans-1-Aza-9-fluoro-4,5-dihydro-2-(4-(4-morpholinyl)-sulfonylaminomethyl)cyclohexylamino-3-thia-benzo[e]azulene] |
|  | 14.6 | COCCOC(=O)NC[C@H]1CC[C@H](Nc2nc3c(s2)CCCc2ccc(F)cc2-3)CC1 [Example 77, trans-1-Aza-9-fluoro-4,5-dihydro-2-(4-(2-methoxy)-ethoxy-carbonylaminomethyl)cyclohexylamino-3-thia-benzo[e]azulene] |
|  | 6 | COc1ccc2c(c1)CCCc1sc(N[C@H]3CC[C@H](CNS(=O)(=O)N4CCOCC4)CC3)nc1-2 [Example 78, trans-N2-(4-(1-Morpholinylsulfonylaminomethyl)-cyclohexyl-8-methoxy-5,6-dihydro-4H-benzo[6,7]-cyclohepta[d][1,3]thiazol-2-amine hydrochloride] |
|  | 62 | CC(=O)NC[C@H]1CC[C@H](Nc2nc3c(s2)CCCc2ccc(F)cc2-3)CC1 [Example 81, N1-({4-[(9-fluoro-5,6-dihydro-4H-benzo[6,7]-cyclohepta-[d][1,3]thiazol-2-yl)amino]cyclohexyl}-methyl)acetamide] |
|  | 11.9 | CCCN(C=O)C[C@H]1CC[C@H](Nc2nc3c(s2)CCCc2ccc(F)cc2-3)CC1 [Example 82, trans-1-Aza-9-fluoro-4,5-dihydro-2-(4-(N-propyl-formamido)-methyl)cyclohexylamino-3-thia-benzo[e]-azulene] |
|  | 12 | CC(C)N(C=O)C[C@H]1CC[C@H](Nc2nc3c(s2)CCCc2ccc(F)cc2-3)CC1 [Example 83, trans-1-Aza-9-fluoro-4,5-dihydro-2-(4-(N-isopropyl-formamido)methyl)cyclohexylamino-3-thia-benzo[e]-azulene] |
|  | 40 | COCC(=O)N[C@H]1CC[C@H](CNc2nc3c(s2)CCOc2ccccc2-3)CC1 [Example 84, N1-{4-[(4,5-dihydrobenzo[2,3]oxepino[4,5-d][1,3]thiazol-2-ylamino)methyl]cyclohexyl}-2-methoxyacetamide] |
|  | 68 | COCCN(C=O)[C@H]1CC[C@H](CNc2nc3c(s2)CCOc2ccccc2-3)CC1 [Example 86, N-{4-[(4,5-dihydrobenzo[2,3]oxepino[4,5-d][1,3]thiazol-2-ylamino)methyl]cyclohexyl}-N-(2-methoxyethyl)formamide] |
|  | 86 | CCN(C=O)[C@H]1CC[C@H](CNc2nc3c(s2)CCOc2ccccc2-3)CC1 [Example 87, trans-1-Aza-2-(4-(n-(ethyl) formamido)cyclohexyl)methyl-amino-4,5-dihydro-6-oxa-3-thia-benzo[e]azulene] |
|  | 36 | CCCN(C=O)[C@H]1CC[C@H](CNc2nc3c(s2)CCOc2ccccc2-3)CC1 [Example 88, N-{4-[(4,5-Dihydrobenzo[2,3]oxepino[4,5-d][1,3]-thiazol-2-ylamino)methyl]cyclohexyl}-N-propyl-formamide] |
|  | 9.2 | COCC(=O)NCc1ccc(Nc2nc3c(s2)CCCc2ccc(F)cc2-3)cc1 [Example 89, N1-{4-[(9-fluoro-5,6-dihydro-4H-benzo[6,7]cyclohepta-[d][1,3]thiazol-2-yl)amino]benzyl}-2-methoxyacetamide] |
|  | 12.3 | COc1ccccc1-c1csc(N[C@H]2CC[C@H](CNS(C)(=O)=O)CC2)n1 [Example 91, trans-4-(2-Methoxy)phenyl-2-(4-methylsulfonylamino-methyl)-cyclohexylamino-1,3-thiazole hydrochloride] |
|  | 912 | CCOC(=O)NC[C@H]1CC[C@H](Nc2nc(-c3ccccc3OC)cs2)CC1 [Example 92, trans-2-(4-Ethoxycarbonylaminomethyl)cyclohexylamino-4-(2-methoxy)phenylthiazole hydrogen chloride] |
|  | 150 | COc1cccc(-c2csc(N[C@H]3CC[C@H](CNS(C)(=O)=O)CC3)n2)c1 [Example 93, trans-4-(3-Methoxy)phenyl-2-(4-methylsulfonylamino-methyl)-cyclohexylaminothiazole] |
|  | 240 | CCOC(=O)NC[C@H]1CC[C@H](Nc2nc(-c3cccc(OC)c3)cs2)CC1 [Example 94, trans-2-(4-Ethoxycarbonylaminomethyl)cyclohexylamino-4-(3-methoxy)phenylthiazole hydrogen chloride] |
|  | 106 | CS(=O)(=O)NC[C@H]1CC[C@H](Nc2nc(-c3ccccc3O)cs2)CC1 [Example 95, trans-4-(2-Hydroxy)phenyl-2-(4-methylsulfonylamino-methyl)-cyclohexylaminothiazole] |
|  | 56 | COc1ccccc1-c1csc(N[C@H]2CC[C@H](CN(C=O)C(C)C)CC2)n1 [Example 96, trans-2-(4-(N-Isopropyl)formamidomethyl)cyclohexyl-amino-4-(2-methoxy)phenylthiazole hydrogen chloride] |
|  | 335 | COCCN(C=O)C[C@H]1CC[C@H](Nc2nc(-c3ccccc3OC)cs2)CC1 [Example 97] |
|  | 125 | COCCN(C=O)[C@H]1CC[C@H](CNc2nc(-c3ccccc3)cs2)CC1 [Example 98, trans-N-(2-Methoxyethyl)-N-(4-[(4-phenyl-1,3-thiazol-2-yl)amino]methylcyclohexyl)formamide] |
|  | 45 | CC(C)N(C=O)[C@H]1CC[C@H](CNc2nc(-c3ccccc3)cs2)CC1 [Example 99, trans-N-Isopropyl-N-(4-[(4-phenyl-1,3-thiazol-2-yl)amino]methylcyclohexyl)formamide] |
|  | 24 | CC(C)(C)OC(=O)NC[C@H]1CC[C@H](Nc2nc3c(s2)CCSc2ccccc2-3)CC1 [Example 100, tert-Butyl N-{[4-(4,5-Dihydrobenzo[2,3]thiepino[4,5-d][1,3]thiazol-2-ylamino)cyclohexyl]methyl}carbamate] |
|  | 5.9 | CCN(CC)S(=O)(=O)NCCCCCCNc1nc2c(s1)CCSc1ccccc1-2 [Example 101, N′-[6-(4,5-Dihydrobenzo[2,3]thiepino[4,5-d][1,3]thiazol-2-ylamino)hexyl]-N,N-diethylsulfamide] |
|  | 2.6 | CN(C)S(=O)(=O)NC[C@H]1CC[C@H](CNc2nc3c(s2)CCSc2ccc(F)cc2-3)CC1 [Example 106] |
